Test results as given in US20250257332A1, “TRUNCATED AND FUSION PROTEINS” (Monash University, priority 2021, published 2025).
“Also recorded” adds a separate entry of the source.

Assays:
[1] = test system: volumetric muscle loss injury of the rectus femoris muscle
Protocol: Injury: male C57BL/6J mice aged between 10-12 weeks were anesthetised and shaved on the hind left leg. A unilateral incision measuring approximately 1 cm was made exposing the underlying fascia. The left hind limb was extended and exteriorised via the incision site by retracting the surrounding tissue. A 3×4 mm full thickness segment of the rectus femoris muscle was removed. Directly after, the injury site was filled with fibrin hydrogel with or without 200 ng or 500 ng of hrNAMPT (1) (hydrogel components; 40 μl, 8 mg/ml human fibrinogen (FIB3, Enzyme Research Laboratories), 4 U/ml bovine thrombin (T4648, Sigma), 5 mM CaCI2, 17 μg/ml of aprotinin (ab146286, Abcam)) which polymerized in the defect. Then, the soft tissue was closed with stitches.
Histology: 10 days after treatment, animals were sacrificed and the wounds were harvested for histological analysis. The defect site and associated proximal and distal segment of the quadriceps muscle (including the rectus femoris, vastus medialis and vastus lateralis) were excised and embedded. Histological analysis was performed on serial paraffin sections (4 μm sections collected passing the central portion of the wound). Multiple sections were stained with Masson's Trichrome (to detect collagen deposition) and the extent of fibrosis (represented by a blue stain) was measured by histomorphometric analysis using ImageJ software (version 1.51 h, National Institutes of Health, USA). To maintain uniformity between samples, the length of the vastus medialis taken at multiple depths ranging from 1.0 mm-3.0 mm serves as a reference between tissue sections to determine the depth of sectioning. For fibrotic quantification, average muscle fibrosis area at each depth was scored and normalised with the area of the rectus femoris. Total area of muscle is determined by calculating the average area of rectus femoris at each depth.
Immune cell profiling and PAX7+ cell quantification with flow cytometry: 4, 6 or 8 days after treatment with either 0.5 μg of hrNAMPT (1) delivered by fibrin hydrogel or control fibrin hydrogel only, mice were euthanised via CO2 asphyxiation. The defect site and associated proximal and distal segment of the quadricep muscles were isolated and placed into 890 μl of complete RPMI (with 10% FBS and 2 mM Glutamax, Life Technologies). The tissue was minced with surgical scissors and 100 μl of 10 mg/ml Collagenase II (Sigma-Aldrich) and 10 μl of 10 mg/ml DNAse I (Biolabs), while 100 μl of dispase II (10 mg/ml) was added into the digestion for PAX7 acquisition. The mixture was vortexed and incubated at 37° C. for 45 min. The collagenase was then inactivated with 500 μl ice-cold PBS, 5% FBS, 5 mM EDTA. The mixture was strained subsequently through 70 μm and 40 μm filters. The cell suspension was further diluted with 1 ml complete RPMI and centrifuged for 10 min at 300×g. The supernatant was discarded and the pellet was resuspended in 250 μl complete RPMI and aliquoted into wells of a 96-well U bottom plate for antibody staining. The cell solutions were centrifuged, supernatant discarded, and washed with PBS. The cell viability stain used was 100 μl of Zombie Aqua (Biolegend) Live-Dead dye diluted in PBS (1:400 dilution) and incubated for 30 min at 4° C. The cells were then blocked with FcX (anti-CD16/32 antibodies, Biolegend, 1 μg/ml) flow cytometry buffer (PBS, 5% FBS). The cells were kept for 20 min at 4° C., washed with flow cytometry buffer and centrifuged. […] For internal Foxp3 staining in the T cell panel, cells were fixed with 100 μl fixation/permeabilisation solution (42080, Biolegend) for 35 min. Then cells were washed and resuspended in 100 μl of flow cytometry buffer with 0.5% Saponin and 5 μg/ml anti-Foxp3 (clone 3G3, #35-5773-U100) for 45 min. Cells were then resuspended in flow cytometry buffer (100 μl) and acquired on the Fortessa x20 (Beckman Coulter). […] Cells were stained for 45 min on ice and washed as described above.

TLR4 = target: T1, TLR4 (Homo sapiens, UniProt O00206); experiment: TLR4 signalling assay in HEK-Blue TLR4 reporter cells; assay type: cell-based; conditions: 19 nM; 24 hours; plus 5 ug/ml polymyxin B
T1 construct: host or cells: HEK-Blue TLR4 reporter cell line
T1 sequence (O00206 24-839): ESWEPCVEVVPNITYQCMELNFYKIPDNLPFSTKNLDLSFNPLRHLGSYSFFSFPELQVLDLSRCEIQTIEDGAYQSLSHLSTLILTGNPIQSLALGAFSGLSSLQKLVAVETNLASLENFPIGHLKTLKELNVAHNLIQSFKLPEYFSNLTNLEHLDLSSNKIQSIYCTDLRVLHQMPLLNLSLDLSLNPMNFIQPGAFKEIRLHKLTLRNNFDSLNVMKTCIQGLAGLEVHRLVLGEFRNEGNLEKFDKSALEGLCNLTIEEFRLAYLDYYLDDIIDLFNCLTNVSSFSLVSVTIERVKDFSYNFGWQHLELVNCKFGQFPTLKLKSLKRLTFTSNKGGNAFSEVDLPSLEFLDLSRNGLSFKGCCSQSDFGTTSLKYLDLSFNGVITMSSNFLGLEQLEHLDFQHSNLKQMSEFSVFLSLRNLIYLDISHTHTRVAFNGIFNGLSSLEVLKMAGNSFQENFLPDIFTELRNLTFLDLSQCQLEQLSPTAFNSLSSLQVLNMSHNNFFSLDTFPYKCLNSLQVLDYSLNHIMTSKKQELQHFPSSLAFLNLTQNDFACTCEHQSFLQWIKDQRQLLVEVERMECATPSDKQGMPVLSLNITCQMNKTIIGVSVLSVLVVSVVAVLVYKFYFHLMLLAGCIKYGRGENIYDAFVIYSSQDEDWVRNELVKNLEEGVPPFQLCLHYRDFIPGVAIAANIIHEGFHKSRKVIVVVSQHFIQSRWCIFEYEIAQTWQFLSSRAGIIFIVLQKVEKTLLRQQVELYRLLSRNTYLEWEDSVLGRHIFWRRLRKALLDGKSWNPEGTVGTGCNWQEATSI
T1 sequence (Q9Y6Y9 17-160 partner limits assumed): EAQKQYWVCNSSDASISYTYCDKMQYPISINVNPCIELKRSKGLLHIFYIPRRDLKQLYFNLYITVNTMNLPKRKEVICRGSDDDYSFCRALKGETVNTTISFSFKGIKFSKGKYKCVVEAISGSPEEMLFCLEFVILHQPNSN
Protocol: TLR4 receptor activation was assayed using the HEK-Blue TLR4 reporter cell line (InvivoGen). In this cell line, TLR4 and downstream NFκB signalling induces expression and secretion of alkaline phosphatase that can be quantified via colorimetric assay. HEK-Blue cells were treated for 24 hours with 19 nM of NAMPTcif or PIGF-NAMPTcif plus 5 ug/ml polymyxin B to ensure no TLR4 activation by any trace amounts of endotoxin. TLR4 activity was reported as the equivalent amount of activation by bacterial lipopolysaccharides (LPS), thus a standard curve was generated by serial dilutions of LPS from 0.01 to 20 ng/ml. Detection of alkaline phosphatase activity was performed using a QUANTI-Blue kit (InvivoGen) according to manufacturer's instructions and plates were read using a Synergy H1 plate reader (BioTek). Data were presented as equivalent LPS concentration in ng/ml. A one-way ANOVA with Dunnett's multiple comparisons test was performed to determine statistical significance.

[2] = test system: Human primary endothelial cells derived from umbilical vein; experiment: Human primary endothelial cell proliferation, CyQuant; assay type: cell-based; conditions: 20 nM; 48 hours
Protocol: FIG. 9. Human NAMPT variants stimulate human endothelial cell proliferation. Human primary endothelial cells derived from umbilical vein were treated with 20 nM full length NAMPT (NAMPT) or NAMPT variants (NAMPTxxx-xxx, where xxx are amino acid numbers) for 48 hours. Quantification of cell proliferation was performed using CyQuant Proliferation Assay kit. […] Treatment with 10% FBS was used as a positive control. Box and whiskers denote median with minimum and maximum values. n=6 independent experiments per protein. Statistical significance is indicated as p-value and determined by one-sample t-test.
Similarly, the inventors next investigated the activity of full length NAMPT, NAMPT402-491 and NAMPT422-491 on human endothelial cell proliferation. Human endothelial cells were derived from umbilical vein and treated with 20 nM full length NAMPT (NAMPT) or NAMPT variants for 48 hours.

C2C12 myoblasts = experiment: C2C12 myoblast proliferation by EdU incorporation; assay type: cell-based, mouse; conditions: for effect on NAMPT-induced increase in myoblast proliferation: co-administration with NAMPT
Protocol: FIG. 2. […] In vitro assay assessing the effects of exogenously introduced factors on C2C12 myoblast proliferation. Proliferation is identified by EdU incorporation. […] Mean+S.D. Two-way ANOVA with Tukey's multiple comparison test. […] Mean±SEM
The mouse muscle cell line C2C12 (Yaffe, D. & Saxel, O. Serial passaging and differentiation of myogenic cells isolated from dystrophic mouse muscle. Nature 270, 725 (1977) were cultured in growth media (Dulbecco's Modified Eagle Medium (4.5 g/l D-Glucose, No L Glutamine, No Sodium Pyruvate (Gibco))+20% Fetal Bovine Solution-One Shot (Gibco)+1% Glut Max 100×(Gibco)). Cells were maintained at 37° C., 5% CO2. Cells at 70% confluence, passage 8 were extracted from T75 flasks with 0.025% Tryspin EDTA (Gibco), neutralised in growth media, spun at 180×g for 5 min to pellet cells. The cells were then resuspended in 10 ml of fresh growth media. 500 μl of cells were plated on a 8-well on cover glass II (Sarstedt) chamber slide at a density of 1×10^3 cells/ml. Cells were left 4 h at 37° C. to re-attach. For drug treatments, the media were supplemented with appropriate doses and cultured for 6 h.

[3] = test system: C2C12 murine myoblast cells; experiment: C2C12 cell proliferation, CyQuant Proliferation Assay kit; assay type: cell-based, mouse; conditions: 20 nM, 48 hours, compared with full-length NAMPT
Protocol: FIG. 7. Human NAMPT variants stimulate muscle progenitor proliferation. C2C12 mouse myoblasts were treated with 20 nM full length NAMPT (NAMPT) or NAMPT variants for (NAMPTxxx-xxx, where xxx are amino acid numbers) 48 hours. Quantification of cell proliferation was performed using CyQuant Proliferation Assay kit. […] Box and whiskers denote median with minimum and maximum values. n=4-5 independent experiments per protein. Statistical significance is indicated as exact p-value. […] Significance between conditions were analysed by one-way ANOVA with Tukey post-hoc test.
Human NAMPTcif (hNAMPTcif) and truncated variants of hNAMPTcif were designed by progressively removing N-terminal regions containing positively charged amino acids. Four truncations were produced and numbered T1 to T4. […] Quantification of proliferation was performed using commercially-available CyQuant Proliferation Assay kit (Thermo Fisher Scientific) according to manufacturer's instructions and read using a Synergy H1 plate reader (BioTek). […]
The heparin-binding sequence of placenta growth factor 2 (PIGF2) was fused to the N-terminus of NAMPTcif and produced using a bacterial expression system. […] Quantification of proliferation was performed using commercially-available CyQuant Proliferation Assay kit (Thermo Fisher Scientific) according to manufacturer's instructions and read using a Synergy H1 plate reader (BioTek). […]

[4] = fibrin hydrogel delivery, 10 days post treatment
[5] = single dose 0.5 μg in fibrin hydrogel at the point of injury, 10 days post treatment, vs fibrin only

Compound: Nicotinamide phosphoribosyltransferase [NAMPT]
- number of centrally nucleated de novo muscle fibres ([1]; 0.5 μg in fibrin, 6 days post treatment, vs fibrin only): significant increase
- restoration of muscle architecture ([1]; delivered into the muscle defect via fibrin hydrogel, vs fibrin only control hydrogel): fully restore muscle architecture
- fibrotic tissue (Masson's trichrome) [1, 4]: significant reduction in fibrotic tissue
- regenerated muscle area (Masson's trichrome) [1, 4]: significantly increased the regenerated muscle area
- decrease in average fibrotic area [1, 5]: 34.76±9.32%
- increase in average muscle area [1, 5]: 3.276±0.4926 mm^2
- TLR4 activation (equivalent LPS concentration) (TLR4): activates TLR4
- endothelial cell proliferation, percentage increase vs PBS-treated control [2]: still stimulated endothelial cell proliferation above negative control

Compound: CCCCOCCOc1ccc(-c2ccc3c(c2)/C=C(/C(=O)Nc2ccc([S@@+]([O-])Cc4cncn4CCC)cc2)CCCN3CC(C)C)cc1 [cenicriviroc]
- effect on NAMPT-induced increase in myoblast proliferation (C2C12 myoblasts; EdU incorporation): abolishes NAMPT's pro-proliferative response; also recorded: proliferative response was blocked

Compound: N#CN=C(NCCCCCCOc1ccc(Cl)cc1)Nc1ccncc1 [GMX1778]
- effect on NAMPT-induced increase in myoblast proliferation (C2C12 myoblasts; EdU incorporation): does not impact its effect on myoblast proliferation; also recorded: did not affect the increased myoblast proliferation
- effect on basal level of C2C12 proliferation (C2C12 myoblasts; drug alone, EdU incorporation): no negative effect on the basal level of C2C12 proliferation

Compound: NAMPT422-471: Truncated hNAMPTcif, residues 422-471 of full length NAMPT, SEQ ID NO: 33 (His-tagged: SEQ ID NO: 34) (NKRSKKGRLSLHRTPAGNFVTLEEGKGDLEEYGQDLLHTVFKNGKVTKS)
- cell proliferation, percentage increase vs PBS-treated control [3]: lower cellular proliferation of muscle progenitor cells compared to full-length NAMPT and the other NAMPT variants

Compound: maraviroc
- effect on NAMPT-induced increase in myoblast proliferation (C2C12 myoblasts; EdU incorporation): abolishes NAMPT's pro-proliferative response; also recorded: proliferative response was blocked

Compound: O=C(NCC(=O)N1CC[C@H](N[C@H]2CC[C@@](O)(c3ccc(-c4ncccn4)cn3)CC2)C1)c1cccc(C(F)(F)F)c1 [PF-4136309]
- effect on NAMPT-induced increase in myoblast proliferation (C2C12 myoblasts; EdU incorporation): does not hinder NAMPT's stimulatory effect on myoblast proliferation

Compound: NAMPT436-491: Truncated hNAMPTcif, residues 436-491 of full length NAMPT, SEQ ID NO: 10 (His-tagged: SEQ ID NO: 11) (PAGNFVTLEEGKGDLEEYGQDLLHTVFKNGKVTKSYSFDEIRKNAQLNIELEAAHH)
- cell proliferation, percentage increase vs PBS-treated control [3]: lower cellular proliferation of muscle progenitor cells compared to full-length NAMPT and the other NAMPT variants

Compound: CCL2/MCP-1: CCR2 ligand
- myoblast proliferation (EdU incorporation), factor alone (C2C12 myoblasts; exogenously added factor vs control, listed as mrCCL2): failed to increase proliferative rates beyond that of the control
